Assay results from patent US7208142B2, “Indanylidene compounds” (Symrise GmbH & Co. KG, priority 2000, dated 2007).

How the values were obtained:
[1] = UV absorption of the compounds (E1/1 at λmax); assay type: physicochemical
[2] = Photostability: irradiation in a Suntester, concentration decrease of the UV filters; assay type: physicochemical
[3] = formulation Example 1, 72 J/cm^2, 765 W/m^2
[4] = formulation Example 1, 144 J/cm^2, 765 W/m^2

With Cc1cc2c(cc1C)C(C)(C)C/C2=C(/C#N)C(=O)C(C)(C)C [Example 3, 2-(3,3,5,6-tetramethyl-1-indanylidene)-4,4-dimethyl-3-oxo-pentanonitrile] the λmax [1] was 342 nm.
In the case of COc1cc2c(cc1OC)C(C)(C)C/C2=C(/C#N)C(=O)C(C)(C)C [Example 1, 2-(5,6-Dimethoxy-3,3-dimethyl-1-indanylidene)-4,4-dimethyl-3-oxo-pentanonitrile], the λmax [1] is reported as 373 nm.
For COc1cc2c(cc1OC)C(C)(C)C/C2=C(/C#N)C(=O)C(C)(C)C [Example B1], the “concentration decrease of the UV filter following irradiation” value (“concentration decrease” below) ([2]; combination B1 + OMC, formulation Example 12, 72 J/cm^2) was 2%, the “concentration decrease” value ([2]; combination B1 + OMC, formulation Example 12, 144 J/cm^2) was 3% and the “concentration decrease” value [2, 3] was 2%. For the same molecule, the “concentration decrease” value [2, 4] was 3%.
For Cc1ccc2c(c1)/C(=C(\C#N)C(=O)C(C)(C)C)CC2(C)C [Example 4, 2-(3,3,6-trimethyl-1-indanylidene)-4,4-dimethyl-3-oxo-pentanonitrile], the “E1/1 (specific extinction at λmax)” value [1] was 588/550 and the λmax [1] was 335/316.
COc1c(C)cc2c(c1C)C(C)(C)C/C2=C(/C#N)C(=O)C(C)(C)C [Example 2, 2-(5-Methoxy-3,3,4,6-tetramethyl-1-indanylidene)-4,4-dimethyl-3-oxo-pentanonitrile] gave a λmax [1] of 340 nm.
With COC(=O)/C(C#N)=C1\CC(C)(C)c2cc(OC)c(OCC(C)C[Si](C)(O[Si](C)(C)C)O[Si](C)(C)C)cc21 (stereo not shown) [Example A2] the “concentration decrease” value ([2]; combination A2 + OMC, formulation Example 12, 72 J/cm^2) was 14%, the “concentration decrease” value ([2]; combination A2 + OMC, formulation Example 12, 144 J/cm^2) was 26% and the “concentration decrease” value [2, 3] was 1%. For the same molecule, the “concentration decrease” value [2, 4] was 6%.
With COc1cc2c(cc1OC(C)=O)/C(=C(\C#N)C(=O)C(C)(C)C)CC2(C)C [Example 8, 2-(6-Acetoxy-3,3-dimethyl-5-methoxy-1-indanylidene)-4,4-dimethyl-3-oxo-pentanonitrile] the “E1/1 (specific extinction at λmax)” value [1] was 420/280 and the λmax [1] was 355/302.
With CCCOC(=O)/C(C#N)=C1\CC(C)(C)c2cc(OC)c(OC)cc21 [Example A1] the “concentration decrease” value ([2]; combination A1 + OMC, formulation Example 12, 72 J/cm^2) was 22%, the “concentration decrease” value ([2]; combination A1 + OMC, formulation Example 12, 144 J/cm^2) was 37% and the “concentration decrease” value [2, 3] was 10%. The “concentration decrease” value [2, 4] was 13%.
